Here are results for one compound from paper PMC3389674, “Comparison of Soluble Guanylate Cyclase Stimulators and Activators in Models of Cardiovascular Disease Associated with Oxidative Stress” (Frontiers in Pharmacology, 2012).

The assay has as its target T1, human sGC (Homo sapiens, UniProt Q02153).
T1 sequence (Q02153 1-619): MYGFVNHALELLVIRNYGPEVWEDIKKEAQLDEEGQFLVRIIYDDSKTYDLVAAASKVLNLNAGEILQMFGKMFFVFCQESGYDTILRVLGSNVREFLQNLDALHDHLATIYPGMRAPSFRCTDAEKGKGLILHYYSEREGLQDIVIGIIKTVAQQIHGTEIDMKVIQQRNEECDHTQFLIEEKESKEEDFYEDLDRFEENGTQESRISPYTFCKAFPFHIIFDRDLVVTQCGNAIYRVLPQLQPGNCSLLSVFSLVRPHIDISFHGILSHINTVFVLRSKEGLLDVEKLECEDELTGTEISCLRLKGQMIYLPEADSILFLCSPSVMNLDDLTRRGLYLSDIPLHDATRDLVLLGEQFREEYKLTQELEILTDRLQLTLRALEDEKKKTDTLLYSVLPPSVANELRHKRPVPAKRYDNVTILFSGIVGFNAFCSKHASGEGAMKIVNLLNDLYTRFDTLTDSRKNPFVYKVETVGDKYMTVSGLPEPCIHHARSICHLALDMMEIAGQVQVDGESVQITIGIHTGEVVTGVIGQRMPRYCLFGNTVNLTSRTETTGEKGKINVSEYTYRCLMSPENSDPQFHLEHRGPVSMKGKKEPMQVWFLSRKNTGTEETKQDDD
T1 sequence (Q02108 1-690 partner): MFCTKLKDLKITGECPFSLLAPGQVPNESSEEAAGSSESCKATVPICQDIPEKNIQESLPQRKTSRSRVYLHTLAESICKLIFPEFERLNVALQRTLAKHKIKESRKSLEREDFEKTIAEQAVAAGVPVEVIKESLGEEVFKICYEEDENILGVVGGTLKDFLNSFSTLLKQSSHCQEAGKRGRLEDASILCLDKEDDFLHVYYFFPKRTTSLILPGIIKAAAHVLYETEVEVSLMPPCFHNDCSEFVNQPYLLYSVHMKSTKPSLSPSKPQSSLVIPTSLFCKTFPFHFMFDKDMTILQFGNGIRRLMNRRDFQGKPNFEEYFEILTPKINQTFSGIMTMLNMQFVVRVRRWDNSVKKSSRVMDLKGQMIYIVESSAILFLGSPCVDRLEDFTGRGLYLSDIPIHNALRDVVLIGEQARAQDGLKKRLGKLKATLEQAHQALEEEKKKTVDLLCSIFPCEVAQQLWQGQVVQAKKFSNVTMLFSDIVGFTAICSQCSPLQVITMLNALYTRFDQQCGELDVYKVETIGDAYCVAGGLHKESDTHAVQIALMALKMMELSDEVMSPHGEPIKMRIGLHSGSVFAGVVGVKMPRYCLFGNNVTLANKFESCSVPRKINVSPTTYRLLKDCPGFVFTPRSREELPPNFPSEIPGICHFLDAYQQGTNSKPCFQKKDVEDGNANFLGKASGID
Put plainly: primary cell-free human sGC enzyme assay (cGMP formation). Type of assay: biochemical. The following applies: data not shown.

`Cc1cc(-c2ccc(OC(F)(F)F)cc2)ccc1COc1ccccc1-c1cccc(-n2ncc(C(=O)O)c2C(F)(F)F)n1` [GSK2181236A, 1-(6-{2-[({3-methyl-4′-[(trifluoromethyl)oxy]-4-biphenylyl}methyl)oxy]phenyl}-2-pyridinyl)-5-(trifluoromethyl)-1H-pyrazole-4-carboxylic acid] displayed a half-maximal effective concentration (EC50) of 25 nM. This lies in the double-digit nanomolar range.

In general, EC50 refers to the midpoint of the concentration-response curve. High values mean a need for much substance, low ones an effect from little substance.
